Data: PMC10119930, “Dual Molecules Targeting 5-HT6 and GABA-A Receptors as a New Approach to Combat Depression Associated with Neuroinflammation” (ACS Chemical Neuroscience, 2023)
Blank lines part the entries; values can stand above or below the molecule they belong to.

Tests used:
[1] = test system: BV-2 microglia cells; assay: Anti-inflammatory assessment in LPS-stimulated BV-2 cells (NO, ROS, IL-6, TNF-α); format: cell-based, mouse; conditions: 10 μM pretreatment 1 h, then LPS 18 h
Description: Mouse microglial (BV-2) cell line was a generous gift from Prof. Bożena Kamińska-Kaczmarek of the Nencki Institute of Experimental Biology, Polish Academy of Sciences, Warsaw, Poland. The cell culture medium: Dulbecco’s modified with high glucose (DMEM, Glutamx ThermoFisher) and supplemented with 10% inactivated fetal bovine serum heat (ThermoFisher), 100 IU/mL penicillin (Merck) and 100 μg/mL streptomycin (Merck). Cell culture conditions: culture flasks (area 175 cm^2, Nunc), temperature of 37 °C, 5% CO2. For the assessment of the effect of tested compounds on the quantities of reactive oxygen species, nitric oxide, and inflammatory markers, the BV-2 cells were positioned in a 96-well culture plate (5 × 10^4 cells per well, Falcon). In the case of cell membrane damage assay, a 96-well culture plate (2 × 10^4 cells per well, Falcon) was used. The cells were cultured in the incubator (37 °C, 5% CO2) for 24 h prior to the assay. The tested compounds were dissolved in DMSO to achieve the concentration of 10^–2 M. Serial dilutions of the compounds were prepared in PBS and added directly to the medium containing adherent cells. The resulting mixtures were examined for any evidence of precipitation or opalescence before the assay. BV-2 cells were incubated with selected molecules (6, 16 at a concentration of 10 μM) during 1 h. Subsequently, lipopolysaccharide (100 ng/mL) was added and the resulting mixture was incubated for 18 h. Next, the culture supernatant was collected to measure the levels of nitric oxide (NO), reactive oxygen species (ROS), IL-6, and TNF-α according to the procedures described in detail below. All experiments were performed in duplicates, in three independent experiments.
The quantities of NO produced by the cells were determined using DAN reagent (2,3-diaminonaphthalene), rendering the method protocol described by Nussler et al.[48] After incubating at room temperature for 15 min, the fluorescence intensity (EX 360; EM 440 nm) was measured using a microplate reader POLARstar Omega from BMG Labtech. The amounts of NO were then calculated as a percentage of the control (which represents the maximal response of LPS). ROS measurement. The fluorescent dye 2,7-dichlorodihydrofluorescein diacetate (DCFH-DA)[49] was utilized to determine the quantity of ROS released by BV-2 cells. After a 30 min incubation period at 37 °C with 10 μM DCFH-DA, the fluorescence intensity (EX 490; EM 520 nm) was examined using a microplate reader POLARstar Omega from BMG Labtech. The amounts of ROS were then expressed as a percentage of the control (which represents the maximal response of LPS). The IL-6 and TNF-α levels detected in the culture supernatants were quantified using LANCE Ultra TR-FRET detection kit (PerkinElmer), rendering the manufacturer’s procedure. The detection of IL-6 and TNF-α was performed independently in a 384-well plate according to the instructions provided. To each well of the plate, 15 μL of sample was added followed by the addition of 5 μL of premixed antibody solution. After incubating IL-6 for 1 h and TNF-α for 3 h in the absence of light, at 22 °C, the plates were transferred to an EnVision plate reader (PerkinElmer). Measurements were conducted at 320 nm wavelength for excitation, at 615 nm for donor emission, and at 660 nm for acceptor emission. The final data were determined as the ratio of the 660 nm signal to the 615 nm signal. The results represent the levels of each cytokine determined as a percentage of control (considered as maximal cell response to LPS). The GraphPad program was used to conduct statistical analysis, with all outcomes presented as mean values with standard deviation (SD). Differences between groups were assessed using one-way ANOVA, followed by post hoc analysis (Dunnett’s multiple comparison tests). Results were considered statistically significant if the p-value was less than 0.05. […]

[2] = test system: BV-2 microglia cells; assay: Evaluation of microglia morphology by fluorescence microscopy (MitoTracker) after LPS; format: cell-based, mouse; conditions: 10 μM pretreatment 1 h, LPS 18 h
[3] = test system: female Wistar rats; assay: Forced swim test in rats; format: in vivo, rat; conditions: acute, ip 30 min before test
Description: Naïve female Wistar rats (weighing 180–200 g) were used in the study. The animals were housed in groups of three to four in standard Makrolon cages (37 cm × 21 cm × 15 cm) under strictly controlled laboratory conditions (ambient temperature 21–24 °C, relative humidity 45–65%) with a 12/12 h light–dark regime (light on at 6:00 a.m. and off at 6:00 p.m.). Animals had unrestricted access to tap water and food (typical pellets). Prior the experiment the animals were randomly appointed to the group. The behavioral studies were accomplished between 8:00 a.m. and 5:00 p.m. with the researcher blind to the study. The experiments were performed according to protocols approved by the Local Ethical Committee in Krakow (Approval Number 147/2018), Poland. Housing and experimental procedures were conducted under the European Union Directive of September 22, 2010 (2010/63/EU) and Polish legislation regarding animal studies. All efforts were made to minimize animal suffering and the number of animals used in the study.
Vortioxetine (Sigma, Germany) and the tested compounds (16 and 6) were dissolved in 10% cyclodextrin and administered ip 30 min before the test or during 14 consecutive days, with the last injection 60 min before the test. 10% cyclodextrin was administrated to control group.
A modified forced swim test was carried out according to Detke et al.[50],[51] First, the animals were individually placed inside Plexiglas cylinders, which were 40 cm high and 18 cm in diameter, filled with water at a temperature of 23–25 °C for 15 min. Afterward, the rats were transferred to a Plexiglas box and kept under a 60 W bulb for 30 min to dry. The day after, exactly 24 h later, the rats were once again placed in the cylinder, and their duration of immobility, swimming, and climbing was observed and recorded during a 5 min. The swimming behavior involved energetic movements such as horizontal swimming around the cylinder, while climbing activity referred to upward movements of the forepaws along the swim chamber’s side. Immobility was recorded when the rat only made necessary movements to keep its head above the water. For each test, a fresh water was provided. Open field test in rats: The test was conducted as previously reported by our research group.[52] The test was performed in a darkened room employing the Motor Monitor System (Campden Instruments, Ltd., U.K.). The system was equipped with two SmartFrame Open Field stations, each measuring 40 cm × 40 cm × 38 cm and consisting of 16 × 16 beams. These stations were placed inside sound-attenuating chambers and connected to a PC software using […]. The animals, belonging to either the vehicle-injected or drug-injected group, were individually positioned at the center of the station. The Motor Monitor System, which was automated, recorded the animal’s ambulation in both the X and Y axes, as well as the number of rearing and peeping episodes. Additionally, the total distance traveled by each animal during the 5 min test period was also recorded. Statistical analysis: Results are presented as the mean ± SEM values. They were estimated using one-way analysis of variance (ANOVA), followed by Newman–Keuls post hoc or unpaired two-tailed Student t test. Statistical significance was considered when p < 0.05 for differences between groups.

[4] = target: 5-HT6 receptor (Homo sapiens, UniProt P50406); assay: Radioligand binding assay for 5-HT6 receptor ([3H]-LSD displacement); design: expressed in transfected cells; host or cells: HEK-293 (cryopreserved membranes); conditions: competitive replacement of [3H]-LSD; ±S.E.M.; read-out: 5-HT6R Ki
5-HT6 receptor, sequence (P50406 whole entry): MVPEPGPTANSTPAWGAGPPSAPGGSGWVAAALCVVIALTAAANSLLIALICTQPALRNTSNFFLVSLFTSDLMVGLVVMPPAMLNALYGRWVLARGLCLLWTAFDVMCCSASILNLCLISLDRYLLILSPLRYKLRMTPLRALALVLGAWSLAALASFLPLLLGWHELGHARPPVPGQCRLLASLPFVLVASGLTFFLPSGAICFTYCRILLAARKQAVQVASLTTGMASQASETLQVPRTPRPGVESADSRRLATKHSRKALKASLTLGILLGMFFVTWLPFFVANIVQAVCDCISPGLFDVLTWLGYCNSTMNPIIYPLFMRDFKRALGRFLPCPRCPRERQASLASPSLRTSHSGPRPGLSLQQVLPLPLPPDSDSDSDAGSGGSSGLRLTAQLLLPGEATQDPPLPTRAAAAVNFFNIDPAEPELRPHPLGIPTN
Description: To determine the affinity for 5-HT6, the cryopreserved membranes from HEK-293 cells stably transfected with the human recombinant 5-HT6 receptor were used.[40] Preparation of the tested compounds included preparation of stock solutions in DMSO (1 mM) and subsequent serial dilutions (10^–10–10^–5 M) of tested compounds in the appropriate buffer (50 mM Tris buffer, pH 7.4, 10 mM MgCl2, 0.5 mM ethylenediaminetetraacetic acid). The serial dilutions were acquired directly on a 96-well microplate. The reaction mix included 50 μL of appropriate concentration of tested molecule, 50 μL of [^3H]LSD 2.5/2.0 nM, and 150 μL of diluted membranes. The microplate containing the reaction mix was protected with a sealing tape and incubated for 60 min at 37 °C. Quenching of the reaction mixtire included: rapid filtration through UniFilter 96 GF/B filter microplate and rapid washes using 200 μL 50 mM assay buffer and vacuum manifold and 96-well pipettor. The collected microplates were dried overnight at 37 °C. The UniFilter bottoms were sealed, and then 30 μL of Betaplate Scint liquid scintillator (PerkinElmer) was added to each well. […] The obtained data were fit to a one-site curve-fitting equation using Prism 5 software (GraphPad Software), and the Ki values were determined using the Cheng–Prusoff equation. Radioligand binding was performed in duplicates.

[5] = test system: human α1β2γ2-GABA-A receptors; assay: Electrophysiological studies, automated patch clamp (QPatch16X), HEK293 cells; format: cell-based; conditions: agonist mode, compound at 10 μM; current amplitude normalized to 10 μM GABA response; ±S.E.M.
Description: Electrophysiological studies were acquired using the QPatch16X automatic patch clamp platform (Sophion Biosciences) as described before.[42],[43] […] Before the assay, cells were detached from the culture flask by treating them with TrypLE Express solution (Life Technologies) and subsequently suspended in serum-free media. The cells were loaded into a 1.5 mL microtube on the automated electrophysiology instrument, which subsequently performed a spin-down using its built-in centrifuge. Following this, the cells were washed with Ringer’s extracellular solution. The cells were moved to the pipetting wells of a 16-channel planar patch chip plate (QPlate 16X) designed for single-use. A combined suction/voltage protocol was then applied to establish gigaseals. […] During the entire whole-cell recording, the holding potential was maintained at −90 mV. […] The intracellular solution contained 140 mM CsF, 1 mM EGTA, 5 mM CsOH, 10 mM HEPES, 20 mMNaCl (pH 7.2, 320 mOsm). […] The acquired data were examined with QPatch assay software (v5.0, Sophion Biosciences)[44] and are represented as the mean of three separated measurements performed on distinct cells. The efficacy of the tested molecules was determined by calculating the baseline-corrected ratio of the maximum current amplitudes elicited by the tested compounds and the reference agonist (T1-ATG/AG1-ATG or T2-ATG/AG1-ATG). The raw current recordings were standardized and presented as a percentage of the current amplitude evoked by the reference agonist, using the QPatch assay software (v5.0, Sophion Biosciences).

[6] = test system: female Wistar rats; design: method as in PMID 36603509; conditions: not tested here; cited from earlier work
[7] = Parallel artificial membrane permeability assay (PAMPA); format: in vitro ADME; conditions: tested at 10^–5 M, PAMPA Plate System Gentest
Description: To estimate the passive transport through cell membranes, we used specialized PAMPA Plate System Gentest acquired from Corning (Tewksbury, MA, USA). The assay was performed as described in the manufacturer’s protocol. The quantitative measurements of tested molecules in apical and basolateral wells were conducted using LC/MS (Waters ACQUITY TQD system with the TQ detector, Milford, USA) and a specific internal standard. The Pe permeability coefficient was calculated rendering the formulas described previously[47],[47] and compared to the reference compound sulpiride.

Ki [4]: 8 ± 0.8 nM
Structure (SMILES): Cc1c(OCc2ccccc2)cccc1N1CCN(CCO)CC1 [Compound 6, 2-(4-(3-(Benzyloxy)-2-methylphenyl)piperazin-1-yl)ethan-1-ol]
LPS-induced IL-6 production [1]: did not change | LPS-induced NO production [1]: did not change | LPS-induced ROS production [1]: did not change | LPS-induced TNF-α production [1]: did not change | mitochondrial membrane potential / morphology of microglia exposed to LPS [2]: mitochondrial membrane potential was changed | immobility, climbing and swimming behaviors [3]: did not influence any of the above behaviors

Structure (SMILES): NCCCC(=O)O [GABA]
[%] of 10 μM GABA activity [5]: 100% | antidepressant effects [6]: does not produce antidepressant effects

Papp [7]: 0.016 ×10⁻⁶ cm/s
Structure (SMILES): CCN1CCCC1CNC(=O)c1cc(S(N)(=O)=O)ccc1OC (stereo not shown) [sulpiride, reference compound]
